Columns and labels:
Assay in all cases: KINOMEscan
Format in all cases: binding
Details in all cases: read-out: Remaining enzyme activity
[1] = molecular target: T1, TLK1 (Homo sapiens, UniProt Q9UKI8)
T1 construct: purchased Ambit (DiscoverX) KINOMEscan; Cerep
Summary of the method: (§1)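 Measures displacement of tagged kinase from an immobilized active-site probe rather than enzymatic activity. SC81458 was added at 10 μM final from a 40x stock in 100% DMSO. Bound kinase was eluted and counted via qPCR.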

[2] = molecular target: T2, EGFR(E46-A750del) (Homo sapiens, UniProt P00533, DEL746-750)
T2 construct: purchased Ambit (DiscoverX) KINOMEscan; Cerep
Summary of the method: as §1

[3] = molecular target: T3, CDKL2 (Homo sapiens, UniProt Q92772)
T3 construct: purchased Ambit (DiscoverX) KINOMEscan; Cerep
Summary of the method: as §1

[4] = molecular target: T4, AKT3 (Homo sapiens, UniProt Q9Y243)
T4 construct: purchased Ambit (DiscoverX) KINOMEscan; Cerep
Summary of the method: as §1

[5] = molecular target: T5, PKN1 (Homo sapiens, UniProt Q16512)
T5 construct: purchased Ambit (DiscoverX) KINOMEscan; Cerep
Summary of the method: as §1

[6] = molecular target: T6, INSR (Homo sapiens, UniProt P06213)
T6 construct: purchased Ambit (DiscoverX) KINOMEscan; Cerep
Summary of the method: as §1

[7] = molecular target: T7, MST1 (Homo sapiens, UniProt Q13043)
T7 construct: purchased Ambit (DiscoverX) KINOMEscan; Cerep
Summary of the method: as §1

[8] = molecular target: T8, MELK (Homo sapiens, UniProt Q14680)
T8 construct: purchased Ambit (DiscoverX) KINOMEscan; Cerep
Summary of the method: as §1

[9] = molecular target: T9, JNK3 (Homo sapiens, UniProt P53779)
T9 construct: purchased Ambit (DiscoverX) KINOMEscan; Cerep
Summary of the method: as §1

[10] = molecular target: T10, PCTk3 (Homo sapiens, UniProt Q07002)
T10 construct: purchased Ambit (DiscoverX) KINOMEscan; Cerep
Summary of the method: as §1

[11] = molecular target: T11, PCTK1 (Homo sapiens, UniProt Q00536)
T11 construct: purchased Ambit (DiscoverX) KINOMEscan; Cerep
Summary of the method: as §1

[12] = molecular target: T12, PDGFRa (Homo sapiens, UniProt P16234)
T12 construct: purchased Ambit (DiscoverX) KINOMEscan; Cerep
Summary of the method: as §1

[13] = molecular target: T13, AKT2 (Homo sapiens, UniProt P31751)
T13 construct: purchased Ambit (DiscoverX) KINOMEscan; Cerep
Summary of the method: as §1

[14] = molecular target: T14, RET(V804M) (Homo sapiens, UniProt P07949, V804M)
T14 construct: purchased Ambit (DiscoverX) KINOMEscan; Cerep
Summary of the method: as §1

[15] = molecular target: T15, MAP3K1 (Homo sapiens, UniProt Q13233)
T15 construct: purchased Ambit (DiscoverX) KINOMEscan; Cerep
Summary of the method: as §1

[16] = molecular target: T16, DMPK2 (Homo sapiens, UniProt Q6DT37)
T16 construct: purchased Ambit (DiscoverX) KINOMEscan; Cerep
Summary of the method: as §1

[17] = molecular target: T17, FLT3(D835H) (Homo sapiens, UniProt P36888, D835H)
T17 construct: purchased Ambit (DiscoverX) KINOMEscan; Cerep
Summary of the method: as §1

[18] = molecular target: T18, PKAC-beta (Homo sapiens, UniProt P22694)
T18 construct: purchased Ambit (DiscoverX) KINOMEscan; Cerep
Summary of the method: as §1

[19] = molecular target: T19, PIK3C2b (Homo sapiens, UniProt O00750)
T19 construct: purchased Ambit (DiscoverX) KINOMEscan; Cerep
Summary of the method: as §1

[20] = molecular target: T20, SLK (Homo sapiens, UniProt Q9H2G2)
T20 construct: purchased Ambit (DiscoverX) KINOMEscan; Cerep
Summary of the method: as §1

[21] = molecular target: T21, MAP3K2 (Homo sapiens, UniProt Q9Y2U5)
T21 construct: purchased Ambit (DiscoverX) KINOMEscan; Cerep
Summary of the method: as §1

[22] = molecular target: T22, ERN1 (Homo sapiens, UniProt O75460)
T22 construct: purchased Ambit (DiscoverX) KINOMEscan; Cerep
Summary of the method: as §1

[23] = molecular target: T23, CAMK2g (Homo sapiens, UniProt Q13555)
T23 construct: purchased Ambit (DiscoverX) KINOMEscan; Cerep
Summary of the method: as §1

[24] = molecular target: T24, LOK (Homo sapiens, UniProt O94804)
T24 construct: purchased Ambit (DiscoverX) KINOMEscan; Cerep
Summary of the method: as §1

[25] = molecular target: T25, LZK (Homo sapiens, UniProt O43283)
T25 construct: purchased Ambit (DiscoverX) KINOMEscan; Cerep
Summary of the method: as §1

[26] = molecular target: T26, CAMK1g (Homo sapiens, UniProt Q96NX5)
T26 construct: purchased Ambit (DiscoverX) KINOMEscan; Cerep
Summary of the method: as §1

[27] = molecular target: T27, MAP3K3 (Homo sapiens, UniProt Q99759)
T27 construct: purchased Ambit (DiscoverX) KINOMEscan; Cerep
Summary of the method: as §1

[28] = molecular target: T28, FER (Homo sapiens, UniProt P16591)
T28 construct: purchased Ambit (DiscoverX) KINOMEscan; Cerep
Summary of the method: as §1

[29] = molecular target: T29, ANKK1 (Homo sapiens, UniProt Q8NFD2)
T29 construct: purchased Ambit (DiscoverX) KINOMEscan; Cerep
Summary of the method: as §1

[30] = molecular target: T30, CAMK4 (Homo sapiens, UniProt Q16566)
T30 construct: purchased Ambit (DiscoverX) KINOMEscan; Cerep
Summary of the method: as §1

[31] = molecular target: T31, LCK (Homo sapiens, UniProt P06239)
T31 construct: purchased Ambit (DiscoverX) KINOMEscan; Cerep
Summary of the method: as §1

[32] = molecular target: T32, IGF1R (Homo sapiens, UniProt P08069)
T32 construct: purchased Ambit (DiscoverX) KINOMEscan; Cerep
Summary of the method: as §1

[33] = molecular target: T33, ABL1(F317I) (Homo sapiens, UniProt P00519, F317I)
T33 construct: purchased Ambit (DiscoverX) KINOMEscan; Cerep
Summary of the method: as §1

[34] = molecular target: T34, CSNK1g2 (Homo sapiens, UniProt P78368)
T34 construct: purchased Ambit (DiscoverX) KINOMEscan; Cerep
Summary of the method: as §1

T25 sequence (O43283 whole entry): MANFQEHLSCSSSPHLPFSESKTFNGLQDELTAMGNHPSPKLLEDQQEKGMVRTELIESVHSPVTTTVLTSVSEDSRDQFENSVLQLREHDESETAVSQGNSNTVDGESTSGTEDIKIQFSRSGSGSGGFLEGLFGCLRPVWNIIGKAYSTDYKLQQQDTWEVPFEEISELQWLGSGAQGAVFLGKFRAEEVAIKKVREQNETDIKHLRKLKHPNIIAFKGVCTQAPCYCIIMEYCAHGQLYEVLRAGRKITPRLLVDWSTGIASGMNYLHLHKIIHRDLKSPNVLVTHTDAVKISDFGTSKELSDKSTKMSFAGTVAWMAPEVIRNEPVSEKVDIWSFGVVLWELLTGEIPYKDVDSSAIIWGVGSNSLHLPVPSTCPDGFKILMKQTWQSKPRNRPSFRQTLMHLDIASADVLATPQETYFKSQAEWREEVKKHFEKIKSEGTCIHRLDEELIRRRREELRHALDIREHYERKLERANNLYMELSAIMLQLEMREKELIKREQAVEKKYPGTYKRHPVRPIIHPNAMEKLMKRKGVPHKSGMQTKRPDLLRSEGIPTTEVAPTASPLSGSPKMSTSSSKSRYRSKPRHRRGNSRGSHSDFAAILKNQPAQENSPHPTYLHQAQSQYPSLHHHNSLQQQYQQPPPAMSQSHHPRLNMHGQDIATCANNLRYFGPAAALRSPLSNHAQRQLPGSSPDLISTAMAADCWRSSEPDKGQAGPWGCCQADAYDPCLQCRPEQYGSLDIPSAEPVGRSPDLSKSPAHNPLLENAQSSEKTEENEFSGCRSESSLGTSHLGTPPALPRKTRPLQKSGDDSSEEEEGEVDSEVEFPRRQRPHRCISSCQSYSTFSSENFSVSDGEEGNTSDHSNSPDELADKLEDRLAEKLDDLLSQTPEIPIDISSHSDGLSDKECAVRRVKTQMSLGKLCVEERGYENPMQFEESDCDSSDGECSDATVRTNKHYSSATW
T15 sequence (Q13233 whole entry): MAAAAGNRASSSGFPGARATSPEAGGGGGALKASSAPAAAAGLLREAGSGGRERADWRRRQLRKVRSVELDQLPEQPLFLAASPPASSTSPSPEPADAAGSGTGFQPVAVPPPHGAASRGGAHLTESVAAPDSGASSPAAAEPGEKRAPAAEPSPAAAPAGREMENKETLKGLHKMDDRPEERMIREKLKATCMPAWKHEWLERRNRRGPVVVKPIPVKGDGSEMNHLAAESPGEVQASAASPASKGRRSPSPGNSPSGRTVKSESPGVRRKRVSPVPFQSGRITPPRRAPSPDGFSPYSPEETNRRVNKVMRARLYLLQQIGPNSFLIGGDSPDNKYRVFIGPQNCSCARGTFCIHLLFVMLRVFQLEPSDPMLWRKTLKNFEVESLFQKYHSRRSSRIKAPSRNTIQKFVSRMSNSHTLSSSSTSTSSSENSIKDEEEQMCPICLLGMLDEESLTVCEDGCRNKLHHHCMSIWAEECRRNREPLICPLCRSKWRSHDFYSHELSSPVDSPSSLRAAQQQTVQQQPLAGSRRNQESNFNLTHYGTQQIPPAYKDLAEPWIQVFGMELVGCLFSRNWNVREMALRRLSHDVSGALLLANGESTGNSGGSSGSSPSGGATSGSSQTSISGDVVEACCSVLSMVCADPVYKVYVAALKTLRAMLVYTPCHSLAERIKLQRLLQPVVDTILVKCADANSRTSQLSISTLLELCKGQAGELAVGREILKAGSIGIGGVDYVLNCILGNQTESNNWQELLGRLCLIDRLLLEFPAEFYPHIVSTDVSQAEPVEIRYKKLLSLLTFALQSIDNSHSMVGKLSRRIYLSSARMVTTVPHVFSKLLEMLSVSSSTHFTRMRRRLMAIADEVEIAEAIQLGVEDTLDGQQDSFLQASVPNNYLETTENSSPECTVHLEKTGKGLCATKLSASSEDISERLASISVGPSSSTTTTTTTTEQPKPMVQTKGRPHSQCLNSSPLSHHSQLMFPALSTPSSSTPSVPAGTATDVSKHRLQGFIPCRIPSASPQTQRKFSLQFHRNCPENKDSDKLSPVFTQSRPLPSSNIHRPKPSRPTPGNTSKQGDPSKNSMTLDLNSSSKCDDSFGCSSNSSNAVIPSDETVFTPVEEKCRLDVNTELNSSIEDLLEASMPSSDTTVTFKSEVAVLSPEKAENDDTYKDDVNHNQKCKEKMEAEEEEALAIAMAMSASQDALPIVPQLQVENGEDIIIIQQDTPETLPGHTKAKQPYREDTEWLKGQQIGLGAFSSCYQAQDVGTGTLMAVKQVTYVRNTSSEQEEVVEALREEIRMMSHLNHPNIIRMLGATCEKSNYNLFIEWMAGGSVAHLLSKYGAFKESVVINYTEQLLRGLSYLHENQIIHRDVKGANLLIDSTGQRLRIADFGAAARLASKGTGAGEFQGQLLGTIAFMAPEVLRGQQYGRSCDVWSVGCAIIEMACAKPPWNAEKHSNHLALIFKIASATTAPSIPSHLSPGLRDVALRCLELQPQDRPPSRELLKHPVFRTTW
T26 sequence (Q96NX5 whole entry): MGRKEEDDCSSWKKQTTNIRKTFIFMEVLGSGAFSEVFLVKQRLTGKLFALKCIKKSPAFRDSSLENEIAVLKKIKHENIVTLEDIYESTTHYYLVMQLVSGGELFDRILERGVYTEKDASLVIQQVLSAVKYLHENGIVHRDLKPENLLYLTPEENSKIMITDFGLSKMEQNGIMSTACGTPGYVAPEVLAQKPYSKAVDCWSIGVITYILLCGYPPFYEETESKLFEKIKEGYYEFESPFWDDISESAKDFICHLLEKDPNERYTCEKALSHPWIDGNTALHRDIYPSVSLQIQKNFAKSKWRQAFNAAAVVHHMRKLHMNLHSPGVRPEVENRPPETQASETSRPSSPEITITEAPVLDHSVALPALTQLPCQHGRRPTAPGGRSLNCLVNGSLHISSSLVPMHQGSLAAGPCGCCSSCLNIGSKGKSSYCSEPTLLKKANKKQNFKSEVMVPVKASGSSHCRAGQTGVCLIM
T29 sequence (Q8NFD2 whole entry): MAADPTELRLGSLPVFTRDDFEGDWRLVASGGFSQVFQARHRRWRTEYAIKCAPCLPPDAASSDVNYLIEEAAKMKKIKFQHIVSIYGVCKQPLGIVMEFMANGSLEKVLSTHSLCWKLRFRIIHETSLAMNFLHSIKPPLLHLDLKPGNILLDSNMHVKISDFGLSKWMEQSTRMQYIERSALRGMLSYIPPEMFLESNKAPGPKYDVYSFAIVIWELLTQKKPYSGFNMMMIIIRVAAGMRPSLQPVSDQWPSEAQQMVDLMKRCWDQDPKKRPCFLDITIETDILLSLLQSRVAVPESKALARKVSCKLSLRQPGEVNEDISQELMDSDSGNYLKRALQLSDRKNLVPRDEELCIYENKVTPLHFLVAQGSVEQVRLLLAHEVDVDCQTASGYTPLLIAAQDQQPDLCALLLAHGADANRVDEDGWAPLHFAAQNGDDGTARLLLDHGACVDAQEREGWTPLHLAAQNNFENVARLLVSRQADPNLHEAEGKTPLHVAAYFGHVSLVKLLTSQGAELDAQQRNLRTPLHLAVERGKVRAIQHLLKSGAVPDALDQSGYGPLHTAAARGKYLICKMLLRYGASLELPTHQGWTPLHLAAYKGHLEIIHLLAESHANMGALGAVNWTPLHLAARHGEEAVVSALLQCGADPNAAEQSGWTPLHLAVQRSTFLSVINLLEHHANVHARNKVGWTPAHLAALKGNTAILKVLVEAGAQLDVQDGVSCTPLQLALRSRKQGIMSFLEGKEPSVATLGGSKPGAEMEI
T30 sequence (Q16566 whole entry): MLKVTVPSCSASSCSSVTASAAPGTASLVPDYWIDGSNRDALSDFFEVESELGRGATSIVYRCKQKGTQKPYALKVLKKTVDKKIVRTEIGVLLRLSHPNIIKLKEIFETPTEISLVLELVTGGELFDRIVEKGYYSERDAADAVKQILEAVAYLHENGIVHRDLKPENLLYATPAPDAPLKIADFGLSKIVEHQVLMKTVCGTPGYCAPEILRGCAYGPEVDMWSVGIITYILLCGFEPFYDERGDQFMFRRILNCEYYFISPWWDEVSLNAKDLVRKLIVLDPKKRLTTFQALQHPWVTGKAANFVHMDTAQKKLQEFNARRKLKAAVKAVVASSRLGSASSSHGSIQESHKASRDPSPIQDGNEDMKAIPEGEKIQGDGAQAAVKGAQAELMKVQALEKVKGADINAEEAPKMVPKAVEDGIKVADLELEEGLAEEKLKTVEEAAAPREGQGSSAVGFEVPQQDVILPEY
T21 sequence (Q9Y2U5 whole entry): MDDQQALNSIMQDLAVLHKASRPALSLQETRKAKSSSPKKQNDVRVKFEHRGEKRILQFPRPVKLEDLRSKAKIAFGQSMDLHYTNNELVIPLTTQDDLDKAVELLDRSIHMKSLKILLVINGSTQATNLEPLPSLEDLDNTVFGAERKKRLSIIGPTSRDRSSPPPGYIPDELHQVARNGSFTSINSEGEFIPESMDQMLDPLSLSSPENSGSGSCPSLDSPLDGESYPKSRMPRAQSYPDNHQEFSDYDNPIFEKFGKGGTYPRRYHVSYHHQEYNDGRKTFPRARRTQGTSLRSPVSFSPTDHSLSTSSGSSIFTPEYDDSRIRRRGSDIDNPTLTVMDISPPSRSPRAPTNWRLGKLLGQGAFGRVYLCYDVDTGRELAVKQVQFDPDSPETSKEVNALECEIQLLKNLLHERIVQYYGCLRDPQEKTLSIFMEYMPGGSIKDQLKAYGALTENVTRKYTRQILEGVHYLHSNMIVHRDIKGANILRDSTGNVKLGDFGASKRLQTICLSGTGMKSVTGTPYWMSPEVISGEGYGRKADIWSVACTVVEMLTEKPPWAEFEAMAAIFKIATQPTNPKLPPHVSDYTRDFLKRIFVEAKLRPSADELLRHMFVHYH

## CCCCN1CCN(C(=N)c2cccc(NC(=O)Nc3ccc(S(=O)(=O)NCc4ccc(S(N)(=O)=O)cc4)cc3)c2)CC1 [SC81458, 4-(3-(3-((4-butylpiperazin-1-yl)(imino)methyl)phenyl)ureido)-N-(4-sulfamoylbenzyl) benzenesulfonamide]
[1]
  remaining binding at 10 µM: 100%
[2]
  remaining binding at 10 µM: 96%
[3]
  remaining binding at 10 µM: 100%
[4]
  remaining binding at 10 µM: 66%
[5]
  remaining binding at 10 µM: 100%
[6]
  remaining binding at 10 µM: 100%
[7]
  remaining binding at 10 µM: 100%
[8]
  remaining binding at 10 µM: 100%
[9]
  remaining binding at 10 µM: 100%
[10]
  remaining binding at 10 µM: 98%
[11]
  remaining binding at 10 µM: 92%
[12]
  remaining binding at 10 µM: 87%
[13]
  remaining binding at 10 µM: 84%
[14]
  remaining binding at 10 µM: 100%
[15]
  remaining binding at 10 µM: 100%
[16]
  remaining binding at 10 µM: 100%
[17]
  remaining binding at 10 µM: 100%
[18]
  remaining binding at 10 µM: 78%
[19]
  remaining binding at 10 µM: 98%
[20]
  remaining binding at 10 µM: 100%
[21]
  remaining binding at 10 µM: 100%
[22]
  remaining binding at 10 µM: 100%
[23]
  remaining binding at 10 µM: 100%
[24]
  remaining binding at 10 µM: 100%
[25]
  remaining binding at 10 µM: 100%
[26]
  remaining binding at 10 µM: 98%
[27]
  remaining binding at 10 µM: 100%
[28]
  remaining binding at 10 µM: 100%
[29]
  remaining binding at 10 µM: 99%
[30]
  remaining binding at 10 µM: 51%
[31]
  remaining binding at 10 µM: 100%
[32]
  remaining binding at 10 µM: 77%
[33]
  remaining binding at 10 µM: 100%
[34]
  remaining binding at 10 µM: 100%
